Experiments:
[1] = oral dosing; cited from earlier work
[2] = system: participants with SSc-RP; assay: Average severity (0-10) of weekly RP attacks, all attacks; assay type: in vivo, human; settings: excluding outliers, ITT Part A
Text: (§1) The relevant metrics measured by this tool daily are: • Study medication • SSc-RP symptoms (Reporting an attack including duration of attack) • Severity of the attack considering all symptoms of the attack e.g. tingling, numbness, pain, color changes (VAS 0-10 cm scale) • Participant's location at the time of the attack (inside home/outside home) • Selecting symptoms experienced during the attack (tingling, numbness, pain, color changes, other) • Pain rating during the attack (11-point Likert scale) • The RCS based on how much difficulty participants had with Raynaud's today, how many attacks the participant had, and how long they lasted. Participants will also be asked to consider how much pain, numbness, or other symptoms the Raynaud's caused in fingers (including painful sores), and how much the Raynaud's alone affected the use of hands today (VAS 0-10 cm scale).
The absolute change in average severity of weekly RP attacks (VAS 0-10 cm scale) from baseline to the end of each Dosing Period was and will be a secondary outcome variable. The sponsor-developed participant-informed diary will be used to record data. Average severity of weekly RP attacks is defined as the total severity scores of RP attacks divided by total number of RP attacks within the last 7 days of each dosing period. Total severity scores of RP attacks during the last 7 days of screening period divided by the total number of RP attacks will be used as baseline for the analysis of all periods. The variable will be calculated similar to frequency data as before.

[3] = system: participants with SSc-RP; assay: Frequency of weekly RP attacks, all attacks (patient diary; primary endpoint); assay type: in vivo, human; settings: for Weekly RP Attacks (All Attacks), Max / Weekly RP Attacks (All Attacks), Min / Weekly RP Attacks (All Attacks), Q1 / Weekly RP Attacks (All Attacks), Q3: last 7 days of dosing period
Method: Part A—Double-blind, Placebo-controlled, Parallel-group, Dose selection, will assess the safety and efficacy of two doses of cilnidipine (10 mg and 20 mg), alone and in combination with tadalafil. A total of 36 participants will be randomized to one of six pre-specified treatment arms. See Example 3 for data obtained in this phase of the study thus far, on 11 participants.
Please refer to FIG. 1 for treatment arms in Part A of the study. Dosing lasted or will last for 12 (±2) days in which participants self-administered or will self-administer daily doses of assigned treatment in the morning. Each participant took or will take one capsule and one tablet to blind the active therapy being received.
as §1
Percent change from baseline evaluation for frequency of weekly RP attacks were or will be used as the primary efficacy variable. The sponsor-developed participant-informed diary will be used to record data. Frequency of weekly RP attacks is defined as the total number of RP attacks divided by the number of days with available diary data within the last 7 days of each dosing period then multiplied by 7. Total number of RP attacks during the last 7 days of screening period divided by the number of days with available data then multiplied by 7 will be used as baseline for the analysis of all periods.
Percentage change={(weekly RP attacks for the last 7 days of each dosing period−Baseline weekly RP attacks)/Baseline weekly RP attacks}*100%.
Absolute change=weekly RP attacks for the last 7 days of each dosing period−Baseline weekly RP attacks
Percent change from baseline evaluation for frequency of weekly RP attacks was and will be the primary efficacy endpoint. Frequency of weekly RP attacks is defined as the total number of RP attacks divided by the number of days with available diary data within the last 7 days of each dosing period then multiplied by 7. Total number of RP attacks during the last 7 days of screening period divided by the number of days with available data then multiplied by 7 will be used as baseline for the analysis of all periods.
The following data was actually obtained in accordance with the protocol and plan delineated in Examples 1 and 2. The accompanying data involved 11 patients out of the planned 76 patient study. The study was done in patients with scleroderma (systemic sclerosis) who had relatively frequent Raynaud symptoms as they needed to average at least one attack per day during a screening period of up to two weeks. In this first phase of this double-blind placebo-controlled, prospective randomized study, patients were treated in parallel and after meeting study criteria were randomized to receive either placebo, cilnidipine 10 mg daily, cilnidipine 20 mg daily, tadalafil 5 mg daily, cilnidipine 10 mg plus 5 mg of tadalafil, or cilnidipine 20 mg plus 5 mg of tadalafil.
Results: Patients in the study were administered the Scleroderma Health Assessment Questionnaire (SHAQ) at the time of study entry and during clinic visits following the treatment period. […]

[4] = Cilnidipine 10 mg, baseline RCS subgroup 1 of 2
[5] = Cilnidipine 20 mg, baseline RCS subgroup 1 of 2
[6] = Pooled Cilnidipine 10 mg and Cilnidipine 10 mg + Tadalafil 5 mg, baseline RCS subgroup 1 of 2
[7] = Pooled Cilnidipine 10 mg and Cilnidipine 10 mg + Tadalafil 5 mg, baseline RCS subgroup 2 of 2
[8] = Pooled Cilnidipine 20 mg and Cilnidipine 20 mg + Tadalafil 5 mg, baseline RCS subgroup 1 of 2
[9] = Pooled Cilnidipine 20 mg and Cilnidipine 20 mg + Tadalafil 5 mg, baseline RCS subgroup 2 of 2
[10] = Pooled Cilnidipine, baseline RCS subgroup 1 of 2
[11] = Table A-5, ITT Part A, listed as Cilnidipine 10 mg
[12] = Table A-5, ITT Part A, listed as Cilnidipine 20 mg
[13] = Table A-5, ITT Part A, listed as Pooled Cilnidipine
[14] = Table A-5, ITT Part A, last 7 days of dosing vs last 7 days of screening
[15] = Table A-5, ITT Part A, last 7 days of dosing vs last 7 days of screening, listed as Cilnidipine 10 mg
[16] = Table A-5, ITT Part A, last 7 days of dosing vs last 7 days of screening, listed as Cilnidipine 20 mg
[17] = Tadalafil 5 mg, baseline RCS subgroup 2 of 2

COCCOC(=O)C1=C(C)NC(C)=C(C(=O)OC/C=C/c2ccccc2)C1c1cccc([N+](=O)[O-])c1 (centres unmarked) [Cilnidipine, 1,4-dihydro-2,6-dimethyl,4-(3-nitrophenyl)-3,5-pyridinedicarboxylic acid 2-methoxyethyl (2 E)-3-phenyl-2-propenyl ester]
time to achieve maximal plasma concentrations (Tmax) [1]: about 2 hours | Average Severity of Weekly RP Attacks (All Attacks): Baseline, Mean [2, 4]: 3.03 | Average Severity of Weekly RP Attacks (All Attacks): Baseline, Median [2, 4]: 3.03 | Average Severity of Weekly RP Attacks (All Attacks): Average Severity, Mean [2, 5]: 2.30 | Average Severity of Weekly RP Attacks (All Attacks): Average Severity, Median [2, 5]: 2.30 | Average Severity of Weekly RP Attacks (All Attacks): Baseline, Mean [2, 5]: 3.37 | Average Severity of Weekly RP Attacks (All Attacks): Baseline, Median [2, 5]: 3.37 | Average Severity of Weekly RP Attacks (All Attacks): Average Severity, Mean [2, 6]: 2.97 | Average Severity of Weekly RP Attacks (All Attacks): Average Severity, Median [2, 6]: 2.97 | Average Severity of Weekly RP Attacks (All Attacks): Baseline, Mean [2, 6]: 4.33 | Average Severity of Weekly RP Attacks (All Attacks): Baseline, Median [2, 6]: 4.33 | Average Severity of Weekly RP Attacks (All Attacks): Average Severity, Mean [2, 7]: 4.90 | Average Severity of Weekly RP Attacks (All Attacks): Average Severity, Median [2, 7]: 4.90 | Average Severity of Weekly RP Attacks (All Attacks): Baseline, Mean [2, 7]: 6.22 | Average Severity of Weekly RP Attacks (All Attacks): Baseline, Median [2, 7]: 6.22 | Average Severity of Weekly RP Attacks (All Attacks): Average Severity, Mean [2, 8]: 2.78 | Average Severity of Weekly RP Attacks (All Attacks): Average Severity, Median [2, 8]: 2.40 | Average Severity of Weekly RP Attacks (All Attacks): Baseline, Median [2, 8]: 4.12 | Average Severity of Weekly RP Attacks (All Attacks): Baseline, Mean [2, 9]: 6.59 | Average Severity of Weekly RP Attacks (All Attacks): Baseline, Median [2, 9]: 6.59 | Average Severity of Weekly RP Attacks (All Attacks): Average Severity, Median [2, 10]: 2.40 | Average Severity of Weekly RP Attacks (All Attacks): Baseline, Mean [2, 10]: 3.26 | Average Severity of Weekly RP Attacks (All Attacks): Baseline, Median [2, 10]: 3.03 | Efficacy Seen: overall response ([3]; 20 mg dose group): shows best overall | effect on Raynaud's endpoints (DSMB review) ([3]; Example 4, Part A, both doses (10 and 20 mg)): effective at reducing Raynaud's endpoints | Weekly RP Attacks (All Attacks) Percent Change from Baseline, Median ([3]; Pooled Cilnidipine 20 mg and Cilnidipine 20 mg + Tadalafil 5 mg, excluding outliers, baseline RCS subgroup not named, upper half of table, ITT Part A): −45.00% | Weekly RP Attacks (All Attacks), Median ([3]; Pooled Cilnidipine, excluding outliers, baseline RCS subgroup not named, upper half of table, ITT Part A): 11.00 | Weekly RP Attacks (All Attacks), Max [3, 11]: 23.0 | Weekly RP Attacks (All Attacks), Min [3, 11]: 23.0, | Weekly RP Attacks (All Attacks), Q1 [3, 11]: 23.00, | Weekly RP Attacks (All Attacks), Q3 [3, 11]: 23.00 | Weekly RP Attacks (All Attacks), Max [3, 12]: 11.0 | Weekly RP Attacks (All Attacks), Min [3, 12]: 5.0, | Weekly RP Attacks (All Attacks), Q1 [3, 12]: 5.00, | Weekly RP Attacks (All Attacks), Q3 [3, 12]: 11.00 | Weekly RP Attacks (All Attacks), Max [3, 13]: 23.0 | Weekly RP Attacks (All Attacks), Min [3, 13]: 5.0, | Weekly RP Attacks (All Attacks), Q1 [3, 13]: 5.00, | Weekly RP Attacks (All Attacks), Q3 [3, 13]: 23.00 | Weekly RP Attacks (All Attacks) Change from Baseline, Min [3, 14]: −9.0, | Weekly RP Attacks (All Attacks) Change from Baseline, Q1 [3, 14]: −9.00, | Weekly RP Attacks (All Attacks) Change from Baseline, Max [3, 15]: −9.0 | Weekly RP Attacks (All Attacks) Change from Baseline, Q3 [3, 15]: −9.00 | Weekly RP Attacks (All Attacks) Change from Baseline, Max [3, 16]: −4.3 | Weekly RP Attacks (All Attacks) Percent Change from Baseline, Max [3, 16]: −45.0% | Weekly RP Attacks (All Attacks) Percent Change from Baseline, Q3 [3, 16]: −45.00% | Weekly RP Attacks (All Attacks) Change from Baseline, Max ([3]; Table A-5, ITT Part A, last 7 days of dosing vs last 7 days of screening, listed as Pooled Cilnidipine): −4.3

CN1CC(=O)N2[C@H](c3ccc4c(c3)OCO4)c3[nH]c4ccccc4c3C[C@@H]2C1=O [Tadalafil]
time to achieve maximal plasma concentrations (Tmax) [1]: 2 h | Average Severity of Weekly RP Attacks (All Attacks): Average Severity, Mean [2, 17]: 4.56 | Average Severity of Weekly RP Attacks (All Attacks): Average Severity, Median [2, 17]: 4.56 | Average Severity of Weekly RP Attacks (All Attacks): Baseline, Mean [2, 17]: 5.75 | Average Severity of Weekly RP Attacks (All Attacks): Baseline, Median [2, 17]: 5.75 | Weekly RP Attacks (All Attacks), Max ([3]; Table A-5, ITT Part A): 19.0 | Weekly RP Attacks (All Attacks), Min ([3]; Table A-5, ITT Part A): 7.0, | Weekly RP Attacks (All Attacks), Q1 ([3]; Table A-5, ITT Part A): 7.00, | Weekly RP Attacks (All Attacks), Q3 ([3]; Table A-5, ITT Part A): 19.00 | Weekly RP Attacks (All Attacks) Change from Baseline, Max [3, 14]: 6.0 | Weekly RP Attacks (All Attacks) Change from Baseline, Min [3, 14]: 0.0, | Weekly RP Attacks (All Attacks) Change from Baseline, Q1 [3, 14]: 0.00, | Weekly RP Attacks (All Attacks) Change from Baseline, Q3 [3, 14]: 6.00 | Weekly RP Attacks (All Attacks) Percent Change from Baseline, Min [3, 14]: 0.0, % | Weekly RP Attacks (All Attacks) Percent Change from Baseline, Q1 [3, 14]: 0.00, %
